Columns and labels:
Test in all cases: Bliss excess, mean over the matrix (fraction); higher = more synergy
[1] = test system: GCT (Other Solid Carcinomas)
How it was run: (§1)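 After 24 hours at 37°C and 5% CO2 in 1536-well plates, cells in DMEM/F12 or RPMI plus 10% FBS received two-drug dose matrices for 72 hours. Viability came from CellTiter-Glo 2.0 luminescence and was scaled as inhibition, anchored at 0 by vehicle wells and at 1 by blank wells. Combination Emax is taken as the second-highest inhibition in the matrix, and Bliss excess as the observed combination effect less EA + EB − EA·EB, with EA and EB the single-agent effects.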

[2] = test system: JVM-2 (B-Cell Non-Hodgkin's Lymphoma)
How it was run: as §1

[3] = test system: MHH-ES-1 (Ewing's Sarcoma)
How it was run: as §1

[4] = test system: CESS (Acute Myeloid Leukemia)
How it was run: as §1

[5] = test system: A253 (Head and Neck Carcinoma)
How it was run: as §1

[6] = test system: 22RV1 (Prostate Carcinoma)
How it was run: as §1

[7] = test system: CA46 (Burkitt's Lymphoma)
How it was run: as §1

[8] = test system: LS-411N (Colorectal Carcinoma)
How it was run: as §1

[9] = test system: G-402 (Other Solid Carcinomas)
How it was run: as §1

[10] = test system: JIMT-1 (Breast Carcinoma)
How it was run: as §1

[11] = test system: A101D (Melanoma)
How it was run: as §1

[12] = test system: AU565 (Breast Carcinoma)
How it was run: as §1

[13] = test system: GA-10 (Burkitt's Lymphoma)
How it was run: as §1

[14] = test system: ESO26 (Esophageal Adenocarcinoma)
How it was run: as §1

[15] = test system: IM-9 (Non-Cancerous)
How it was run: as §1

[16] = test system: EW-16 (Ewing's Sarcoma)
How it was run: as §1

[17] = test system: 5637 (Bladder Carcinoma)
How it was run: as §1

[18] = test system: KYSE-140 (Esophageal Squamous Cell Carcinoma)
How it was run: as §1

[19] = test system: HCC1395 (Breast Carcinoma)
How it was run: as §1

[20] = test system: OACp4C (Esophageal Adenocarcinoma)
How it was run: as §1

Compound: COc1nnc2ccc(N3CCC(c4ccc(OCCN5CCN(C)C(=O)[C@H]5C)cc4)CC3)nn12 [AZD5153] + C[C@@H]1COCCN1C2=NC(=NC(=C2)C3(CC3)[S@](=N)(=O)C)C4=C5C=CNC5=NC=C4 [AZD6738] (first compound max 1 µM, 7x7, partner max 10 µM)
- Bliss excess [1]: 0.029
- Bliss excess [2]: -0.061
- Bliss excess [3]: 0.0074
- Bliss excess [4]: -0.0554
- Bliss excess [5]: 0.0315
- Bliss excess [6]: -0.0019
- Bliss excess [7]: -0.0051
- Bliss excess [8]: 0.0754
- Bliss excess [9]: 0.0025
- Bliss excess [10]: 0.0465
- Bliss excess [11]: -0.0186
- Bliss excess [12]: 0.009
- Bliss excess [13]: -0.0177
- Bliss excess [14]: 0.0343
- Bliss excess [15]: -0.0697
- Bliss excess [16]: 0.0667
- Bliss excess [17]: -0.0001
- Bliss excess [18]: -0.0968
- Bliss excess [19]: -0.0241
- Bliss excess [20]: 0.0085

Compound: COc1cccc(OCCCN)c1-c1cc(Nc2cnc(C#N)cn2)n[nH]1 [Prexasertib] + CN(C)CCCOc1ccc(-c2ccc3ncc4c(c3c2)n(C2CCOCC2)c(=O)n4C)cn1 [AZD0156] (first compound max 1 µM, 7x7, partner max 1 µM)
- Bliss excess [1]: -0.0084
- Bliss excess [2]: -0.0104
- Bliss excess [3]: 0.0004
- Bliss excess [4]: 0.0062
- Bliss excess [5]: -0.0379
- Bliss excess [6]: -0.0213
- Bliss excess [7]: 0.0713
- Bliss excess [8]: -0.0336
- Bliss excess [9]: 0.0003
- Bliss excess [10]: 0.0375
- Bliss excess [11]: 0.0419
- Bliss excess [12]: -0.073
- Bliss excess [13]: 0.0213
- Bliss excess [14]: 0.0207
- Bliss excess [15]: -0.0022
- Bliss excess [16]: 0.023
- Bliss excess [17]: -0.0174
- Bliss excess [18]: -0.0129
- Bliss excess [19]: -0.046
- Bliss excess [20]: -0.0162

Compound: CC1(C)CCC(CN2CCN(c3ccc(C(=O)NS(=O)(=O)c4ccc(NCC5CCOCC5)c([N+](=O)[O-])c4)c(Oc4cnc5[nH]ccc5c4)c3)CC2)=C(c2ccc(Cl)cc2)C1 [Venetoclax] + C1CN(CCC1(C(=O)N[C@@H](CCO)C2=CC=C(C=C2)Cl)N)C3=NC=NC4=C3C=CN4 [Capivasertib] (first compound max 1 µM, 7x7, partner max 3 µM)
- Bliss excess [1]: -0.0401
- Bliss excess [2]: -0.0118
- Bliss excess [3]: -0.01
- Bliss excess [4]: -0.0707
- Bliss excess [5]: -0.0084
- Bliss excess [6]: -0.0475
- Bliss excess [7]: -0.0473
- Bliss excess [8]: -0.0139
- Bliss excess [9]: -0.12
- Bliss excess [10]: -0.0836
- Bliss excess [11]: -0.0652
- Bliss excess [12]: 0.0463
- Bliss excess [13]: -0.0614
- Bliss excess [14]: -0.0751
- Bliss excess [15]: 0.0533
- Bliss excess [16]: -0.0498
- Bliss excess [17]: -0.0513
- Bliss excess [18]: -0.018
- Bliss excess [19]: -0.0806
- Bliss excess [20]: -0.0062

Compound: Cc1c2c(nn1C)CSCc1cc(n(C)n1)CSc1cc(c3ccccc3c1)OCCCc1c(C(=O)O)n(C)c3c-2c(Cl)ccc13 [AZD5991] + CCN(CCO)CCCOc1ccc2c(Nc3cc(CC(=O)Nc4cccc(F)c4)[nH]n3)ncnc2c1 [AZD2811] (first compound max 1 µM, 7x7, partner max 1 µM)
- Bliss excess [1]: 0.0106
- Bliss excess [2]: 0.032
- Bliss excess [3]: 0.0173
- Bliss excess [4]: 0.192
- Bliss excess [5]: 0.0542
- Bliss excess [6]: -0.0004
- Bliss excess [7]: 0.0251
- Bliss excess [8]: 0.0206
- Bliss excess [9]: 0.0271
- Bliss excess [10]: 0.0203
- Bliss excess [11]: -0.0169
- Bliss excess [12]: 0.0367
- Bliss excess [13]: -0.0092
- Bliss excess [15]: -0.0112
- Bliss excess [16]: 0.117
- Bliss excess [17]: 0.0103
- Bliss excess [18]: 0.0169
- Bliss excess [19]: 0.0432
- Bliss excess [20]: 0.0088

Compound: Cc1c2c(nn1C)CSCc1cc(n(C)n1)CSc1cc(c3ccccc3c1)OCCCc1c(C(=O)O)n(C)c3c-2c(Cl)ccc13 [AZD5991] + C[C@@H](Nc1cc(F)cc(F)c1)c1cc(C(=O)N(C)C)cc2c(=O)cc(N3CCOCC3)oc12 [AZD8186] (first compound max 1 µM, 7x7, partner max 3 µM)
- Bliss excess [1]: -0.0351
- Bliss excess [2]: 0.0024
- Bliss excess [3]: -0.0142
- Bliss excess [4]: -0.0325
- Bliss excess [5]: -0.0396
- Bliss excess [6]: -0.0029
- Bliss excess [7]: -0.0611
- Bliss excess [8]: 0.0064
- Bliss excess [10]: -0.0492
- Bliss excess [11]: -0.0318
- Bliss excess [12]: 0.0418
- Bliss excess [13]: 0.0321
- Bliss excess [14]: -0.0171
- Bliss excess [15]: -0.0376
- Bliss excess [16]: -0.0571
- Bliss excess [17]: -0.036
- Bliss excess [18]: -0.0439
- Bliss excess [19]: 0.0527
- Bliss excess [20]: 0.0153

Compound: Cc1c2c(nn1C)CSCc1cc(n(C)n1)CSc1cc(c3ccccc3c1)OCCCc1c(C(=O)O)n(C)c3c-2c(Cl)ccc13 [AZD5991] + CN(C)CCCOc1ccc(-c2ccc3ncc4c(c3c2)n(C2CCOCC2)c(=O)n4C)cn1 [AZD0156] (first compound max 1 µM, 7x7, partner max 1 µM)
- Bliss excess [1]: 0.0338
- Bliss excess [2]: -0.0266
- Bliss excess [3]: -0.0112
- Bliss excess [4]: -0.026
- Bliss excess [5]: 0.0058
- Bliss excess [6]: -0.167
- Bliss excess [7]: -0.0705
- Bliss excess [8]: -0.0058
- Bliss excess [9]: 0.0162
- Bliss excess [10]: -0.0129
- Bliss excess [11]: -0.0801
- Bliss excess [12]: 0.0204
- Bliss excess [13]: -0.0564
- Bliss excess [14]: 0.008
- Bliss excess [15]: -0.0637
- Bliss excess [16]: -0.0014
- Bliss excess [17]: -0.0014
- Bliss excess [18]: -0.0063
- Bliss excess [20]: 0.0162

Compound: Cc1c2c(nn1C)CSCc1cc(n(C)n1)CSc1cc(c3ccccc3c1)OCCCc1c(C(=O)O)n(C)c3c-2c(Cl)ccc13 [AZD5991] + Cn1cnc2c(F)c(Nc3ccc(Br)cc3Cl)c(C(=O)NOCCO)cc21 [Selumetinib] (first compound max 1 µM, 7x7, partner max 3 µM)
- Bliss excess [1]: 0.0058
- Bliss excess [2]: 0.0529
- Bliss excess [3]: -0.0127
- Bliss excess [5]: 0.0716
- Bliss excess [6]: 0.0253
- Bliss excess [7]: -0.0195
- Bliss excess [8]: 0.0493
- Bliss excess [9]: -0.0416
- Bliss excess [10]: -0.014
- Bliss excess [11]: 0.0482
- Bliss excess [12]: 0.0145
- Bliss excess [13]: 0.0086
- Bliss excess [14]: 0.0199
- Bliss excess [15]: 0.0092
- Bliss excess [16]: 0.046
- Bliss excess [17]: 0.0174
- Bliss excess [18]: -0.015
- Bliss excess [19]: 0.0152
- Bliss excess [20]: 0.143

Reference: the supplement of paper PMC11061612
